Experimental data reported in patent US6544995B1, “Use of cysteine derivatives for preparing a medicine for treating pathologies resulting from the formation of heterotrimeric G protein” (Societe de Conseils de Recherches et d'Applications …, priority 1998, dated 2003).
Like-named read-outs stand apart in the source and are kept apart here. Where no end group is shown, it is not given here.

How the values were obtained:
[1] = tested on: production of cyclic AMP stimulated by VIP in MCF7 cells; assay: Cyclic AMP production stimulated by VIP in MCF-7 cells; type: cell-based, human; settings: for Inhibition at 30 μM of production of cyclic AMP stimulated by VIP / inhibition at 30 µM: MCF7 cells, compound 30 μM for 30 minutes, then 10^-8 M VIP, n=1; for inhibition at 30 µM: Homo sapiens, 0.5 h
Description: The cells are incubated for 30 minutes in the presence or not of compounds I, II, III and IV (30 μM) which are then stimulated by 10^−8 M of VIP. The quantification of cyclic AMP is determined by radioimmunoassay. The data represents the average±MSD (n=5 for the control and n=1 for the different compounds).

MAP kinase = MAP kinase activity in MCF7 cells; type: cell-based, human; settings: for activity of the MAP kinase after EGF stimulation: pretreatment 1 hour, then EGF for 5 minutes
Description: After 24 hours of culture, the cells are incubated for 48 hours in medium containing no serum in order to return the cells to a state of rest. The cells are then treated for 1 hour either with compound I or with PD98059 (Calbiochem, France Biochem, Meudon, France), a specific inhibitor of MAP kinase activation. The cells are then stimulated (or not) for 5 minutes with 12.5 ng/ml of epidermal growth factor (EGF). The reaction is stopped by two washes with PBS (Gibco-Brl, Cergy-Pontoise, France), at 4° C. containing neither calcium nor magnesium and by adding 150 μl of lysis buffer at 4° C. the composition of which is the following: 10 mM of tris, 150 mM of NaCl, 2 mM of EGTA, 2 mM of dithiothreitol, 1 mM of PMSF, 2 mM of orthovanadate, 10 μg/ml of leupeptin and 10 μg/ml of aprotinin. Measurement of the proteins contained in the extracts is carried out by Bradford's method (Biorad reagents, Ivry-Sur-Seine, France). […] The radioactivity is determined using a Packard scintillation counter (Tricarb 5000CA).

MCF7 human tumour cells = assay: In vitro cell proliferation of MCF-7 cells (WST1); type: cell-based; settings: 96 hours treatment, WST1 test, average of 2 experiments, read-out: IC50, inhibition of in vitro growth of MCF7 cells
Description: The cells were treated on day 1 for 96 hours with increasing concentrations of up to 50 μM of each of the compounds to be tested. After this period, quantification of cell proliferation is determined by a colorimetric test, based on the cleavage of the WST1 tetrazolum salt by the mitochondrial dehydrogenases in the viable cells, leading to the formation of formazan (Boehringer Mannheim, Meylan, France). These tests are carried out in duplicate with 8 determinations per concentration tested. For each compound to be tested, the values included in the linear part of the sigmoid were retained for linear regression analysis and used to estimate the inhibitory concentration (IC50).

heterotrimeric G protein = type: cell-based, human
adenylate cyclase [2] = settings: pretreatment 30 minutes with 30 μM; forskolin 10 μM
Description: (§1) MCF-7 cells (2.10^4 cells/well) seeded in 24-well plates are cultured for 5 days in Dulbecco's modified Eagle medium (Gibco-Brl, Cergy-Pontoise, France) completed with 10% of foetal calf serum inactivated by heating (Gibco-Brl, Cergy-Pontoise, France ), 50000 units/l of penicillin and 50 mg/l streptomycin (Gibco-Brl, Cergy-Pontoise, France), and 2 mM of glutamin (Gibco-Brl, Cergy-Pontoise, France). The culture medium is replaced after two washes with a medium without a serum completed or uncompleted with the specified agents for a time indicated in the different figures. Agents activating the production of cyclic AMP are then added at 37° C. The reaction is stopped after 30 minutes by suppressing the medium and rapidly adding 100 μl of a 0.1N solution of HCl. These extracts are frozen at −80° C. until they are used. The concentration of cAMP is measured using a commercial measurement kit (reference NEK033 from NEN, Les Ulis, France), following the manufacturer's instructions. The radioactivity is determined by a Gamma counter (Gamma Master-1277, LKB, Turku, Finland).

adenylate cyclase [3] = tested on: adenylate cyclase
Description: as §1

[4] = tested on: production of cyclic AMP stimulated by VIP in MCF7 cells; assay: Cyclic AMP production stimulated by VIP in MCF-7 cells; type: cell-based, human

Q: “VIP: vasoactive intestinal peptide, ligand of a G protein-coupled receptor stimulating cyclic AMP synthesis (HSDAVFTDNYTRLRKQMAVKKYLNSILN; ends and bridges not checked; UniProt P01282 125-152, looked up) [reference compound]” was tested. Which “intracellular quantity of cyclic AMP” value ([1]; treatment of MCF-7 cells with VIP alone) did it give?
A: increases the intracellular quantity of cyclic AMP in a concentration-dependent manner

Q: How did the “Inhibition at 30 μM of production of cyclic AMP stimulated by VIP” value (shortened to “Inhibition at 30 μM”) [1] turn out when `CCCCC1c2nc(-c3ccccc3OC)cn2CCN1C(=O)C(N)CS` (stereo not drawn) [compound (V), 7-(2-amino-1-oxo-3-thiopropyl)-8-butyl-2-(2-methoxyphenyl)-5,6,7,8-tetrahydroimidazo[1.2a]pyrazine] was run?
A: 68%

Q: For “EGF: epidermal growth factor used to stimulate MAP kinase [reference compound]”, which “increase of MAP kinase activity” value (MAP kinase; stimulation by EGF for 5 minutes) is on record?
A: approximately 7 times

Q: With `CCC(C)C1c2nc(-c3ccccc3OC)cn2CCN1C(=O)C(N)CSSCC(N)C(=O)N1CCn2cc(-c3ccccc3OC)nc2C1C(C)CC` (stereo not drawn) [compound (VI), bis-1,1′-[7-(2-amino-1-oxo-3-thiopropyl)-2-(methoxyphenyl)-8-(1-methylpropyl)-5,6,7,8-tetrahydroimidazo[1.2a]pyrazine]] as the compound, how does the “Inhibition at 30 μM” value [1] read?
A: 52%

Q: `COC(=O)[C@@H](CC(C)C)NC(=O)c1ccc(NC[C@@H](N)CS)cc1-c1ccccc1` [compound (IV)] was tested. Which inhibition at 30 µM [1] did it give?
A: 52%

Q: What about the IC50 (MCF7 human tumour cells; Homo sapiens, MCF7) of the same compound?
A: 34.6 µM

Q: Which “Inhibition at 30 μM” value [1] does the source give for `COc1ccccc1-c1cn2c(n1)C(CC1CCCCC1)N(C(=O)C(N)CSSCC(N)C(=O)N1CCn3cc(-c4ccccc4OC)nc3C1CC1CCCCC1)CC2` (stereo not drawn) [compound (I)] here?
A: 86%

Q: And the “effect on production of cyclic AMP stimulated by choleric toxin” value (heterotrimeric G protein)?
A: greatly inhibited

Q: And the IC50 (MCF7 human tumour cells)?
A: 9.4 µM

Q: And the “activity of the MAP kinase after EGF stimulation” value (MAP kinase)?
A: halves

Q: What about the “basal activity of the MAP kinase” value (MAP kinase; treatment for 1 hour, no EGF) of the same compound?
A: doubles

Q: And the “effect on production of cyclic AMP induced by forskolin” value (adenylate cyclase [2])?
A: does not modify

Q: What about the “effect on adenylate cyclase activity increased by prostaglandin E2” value (adenylate cyclase [3]; treatment for 30 minutes) of the same compound?
A: inhibited

Q: And the “inhibition of accumulation of cyclic AMP stimulated by VIP at 100 μM” value ([4]; 100 μM, 30-minute pretreatment, VIP 10 nM)?
A: almost complete inhibition

Q: And the “inhibition of accumulation of cyclic AMP stimulated by VIP, concentration dependence” value ([4]; 30-minute pretreatment, VIP 10 nM)?
A: in a concentration-dependent manner

Q: What about the “effect on response to VIP, treatment for an hour” value ([4]; 1 hour treatment) of the same compound?
A: sufficient to modify the response to VIP

Q: What about the “effect on production of cyclic AMP, longer treatments” value ([4]; 8 hours and 24 hours treatment, VIP) of the same compound?
A: continue to inhibit

Q: With `Cc1ccccc1-c1cn2c(n1)C(CC1CCCCC1)N(C(=O)C(N)CS)CC2` (stereo not drawn) [compound (III), 7-(2-amino-1-oxo-3-thiopropyl)-8-(cyclohexylmethyl)-2-(2-methylphenyl)-5,6,7,8-tetrahydroimidazo[1.2a]pyrazine] as the compound, how does the “Inhibition at 30 μM” value [1] read?
A: 59%

Q: What about the IC50 (MCF7 human tumour cells) of the same compound?
A: 16.1 µM

Q: Which “activity of the MAP kinase after EGF stimulation” value (MAP kinase) does the source give for `COc1cccc(-c2cc(=O)c3ccccc3o2)c1N` [PD98059, reference compound] here?
A: halves

Q: How did the “activity of adenylate cyclase” value (adenylate cyclase [3]; prostaglandin E2 alone, MCF7 cells) turn out when `CCCCC[C@H](O)/C=C/[C@H]1[C@H](O)CC(=O)[C@@H]1C/C=C\CCCC(=O)O` [prostaglandin E2, reference compound] was run?
A: greatly increased

Q: What does the source list for `CC(C)CC1c2nc(-c3cccc4ccccc34)cn2CCN1C(=O)C(N)CSSCC(N)C(=O)N1CCn2cc(-c3cccc4ccccc34)nc2C1CC(C)C` (stereo not drawn) [compound (II)]?
A: Inhibition at 30 μM of production of cyclic AMP stimulated by VIP [1]: 71%; IC50 (MCF7 human tumour cells): 15 µM

Q: For `CCCC[C@H]1CN(C(=O)c2cccc3ccccc23)CCN1C[C@@H]1CSSC[C@H](N)C(=O)N1` [compound (VII)], which inhibition at 30 µM [1] is on record?
A: 65%
